Species on record: Rattus norvegicus
Assay: Open TG-GATES - Regimen: Single
Type: toxicity, organism-based, Sprague-Dawley
Set-up: regimen Single, gender Male, age 6 weeks
Details: in vivo, po, 300 mg/kg, route gavage, dose level Middle; for APTT / Bas / Eos / Fbg / Hb / Ht / Lym / MCH / MCHC / MCV / Mono / Neu / PT / Plat / RBC / Ret / WBC: tissue Blood; for KIDNEY_L / KIDNEY_R / KIDNEY_TOTAL: tissue Kidney; for LIVER: tissue Liver; for A/G / ALP / ALT / AST / BUN / CRE / Ca / Cl / DBIL / GLC / IP / LDH / Na / PL / RALB / TBIL / TC / TG / TP / gamma-GTP: tissue Plasma

NC(N)=Nc1nc(CSCCC(N)=NS(N)(=O)=O)cs1 [FAMOTIDINE]
TERMINAL_BW (3 h): 215.2 g
APTT (3 h): 21.3 s
Bas (3 h): 0%
Eos (3 h): 1%
Fbg (3 h): 213.2 mg/dL
Hb (3 h): 13.4 g/dL
Ht (3 h): 37.9%
Lym (3 h): 76.2%
MCH (3 h): 22.4 pg
MCHC (3 h): 35.3%
MCV (3 h): 63.4 fL
Mono (3 h): 2.8%
Neu (3 h): 17.8%
PT (3 h): 12.6 s
Plat (3 h): 116.7 x10_4/uL
RBC (3 h): 598 x10_4/ul
Ret (3 h): 7.6%
WBC (3 h): 82 x10_2/uL
KIDNEY_L (3 h): 1 g
KIDNEY_R (3 h): 1 g
KIDNEY_TOTAL (3 h): 1.9 g
LIVER (3 h): 10.1 g
A/G (3 h): 1.6
ALP (3 h): 814.6 IU/L
ALT (3 h): 34.2 IU/L
AST (3 h): 66.4 IU/L
BUN (3 h): 9.6 mg/dL
CRE (3 h): 0.4 mg/dL
Ca (3 h): 10.6 mg/dL
Cl (3 h): 104.2 meq/L
DBIL (3 h): 0.07 mg/dL
GLC (3 h): 197.8 mg/dL
IP (3 h): 9 mg/dL
LDH (3 h): 230 IU/L
Na (3 h): 140.8 meq/L
PL (3 h): 146 mg/dL
RALB (3 h): 3.4 g/dL
TBIL (3 h): 0.1 mg/dL
TC (3 h): 77.2 mg/dL
TG (3 h): 69.4 mg/dL
TP (3 h): 5.5 g/dL
gamma-GTP (3 h): 1.2 IU/L
TERMINAL_BW (6 h): 211.7 g
APTT (6 h): 18.9 s
Bas (6 h): 0%
Eos (6 h): 1%
Fbg (6 h): 204.6 mg/dL
Hb (6 h): 13.5 g/dL
Ht (6 h): 37.8%
Lym (6 h): 75%
MCH (6 h): 22.3 pg
MCHC (6 h): 35.6%
MCV (6 h): 62.7 fL
Mono (6 h): 2.4%
Neu (6 h): 18.4%
PT (6 h): 12.8 s
Plat (6 h): 109.6 x10_4/uL
RBC (6 h): 604.4 x10_4/ul
Ret (6 h): 7.4%
WBC (6 h): 97.9 x10_2/uL
KIDNEY_L (6 h): 1 g
KIDNEY_R (6 h): 0.9 g
KIDNEY_TOTAL (6 h): 1.9 g
LIVER (6 h): 9 g
A/G (6 h): 1.6
ALP (6 h): 896.8 IU/L
ALT (6 h): 32.8 IU/L
AST (6 h): 66.8 IU/L
BUN (6 h): 8.4 mg/dL
CRE (6 h): 0.4 mg/dL
Ca (6 h): 10.4 mg/dL
Cl (6 h): 103.8 meq/L
DBIL (6 h): 0.07 mg/dL
GLC (6 h): 195 mg/dL
IP (6 h): 9 mg/dL
LDH (6 h): 177.2 IU/L
Na (6 h): 140.8 meq/L
PL (6 h): 131.2 mg/dL
RALB (6 h): 3.2 g/dL
TBIL (6 h): 0.1 mg/dL
TC (6 h): 73.2 mg/dL
TG (6 h): 46.2 mg/dL
TP (6 h): 5.2 g/dL
gamma-GTP (6 h): 2 IU/L
TERMINAL_BW (9 h): 209.6 g
APTT (9 h): 18.9 s
Bas (9 h): 0%
Eos (9 h): 0.8%
Fbg (9 h): 225.4 mg/dL
Hb (9 h): 13.4 g/dL
Ht (9 h): 37.4%
Lym (9 h): 76.8%
MCH (9 h): 22.3 pg
MCHC (9 h): 35.7%
MCV (9 h): 62.3 fL
Mono (9 h): 2.4%
Neu (9 h): 19.2%
PT (9 h): 12.1 s
Plat (9 h): 117.6 x10_4/uL
RBC (9 h): 601.6 x10_4/ul
Ret (9 h): 7.2%
WBC (9 h): 77.6 x10_2/uL
KIDNEY_L (9 h): 0.9 g
KIDNEY_R (9 h): 1 g
KIDNEY_TOTAL (9 h): 1.9 g
LIVER (9 h): 8.7 g
A/G (9 h): 1.6
ALP (9 h): 898 IU/L
ALT (9 h): 26.6 IU/L
AST (9 h): 59 IU/L
BUN (9 h): 10 mg/dL
CRE (9 h): 0.4 mg/dL
Ca (9 h): 10.3 mg/dL
Cl (9 h): 103.6 meq/L
DBIL (9 h): 0.064 mg/dL
GLC (9 h): 195.2 mg/dL
IP (9 h): 8.8 mg/dL
LDH (9 h): 125 IU/L
Na (9 h): 140.2 meq/L
PL (9 h): 130 mg/dL
RALB (9 h): 3.3 g/dL
TBIL (9 h): 0.1 mg/dL
TC (9 h): 67.8 mg/dL
TG (9 h): 47.6 mg/dL
TP (9 h): 5.4 g/dL
gamma-GTP (9 h): 0.6 IU/L
TERMINAL_BW (24 h): 227 g
APTT (24 h): 20.8 s
Bas (24 h): 0%
Eos (24 h): 1%
Fbg (24 h): 225.8 mg/dL
Hb (24 h): 13.4 g/dL
Ht (24 h): 37.6%
Lym (24 h): 78.2%
MCH (24 h): 22.4 pg
MCHC (24 h): 35.6%
MCV (24 h): 63.1 fL
Mono (24 h): 3.8%
Neu (24 h): 15.6%
PT (24 h): 12.1 s
Plat (24 h): 114.2 x10_4/uL
RBC (24 h): 596.2 x10_4/ul
Ret (24 h): 6.6%
WBC (24 h): 78.3 x10_2/uL
KIDNEY_L (24 h): 1 g
KIDNEY_R (24 h): 1 g
KIDNEY_TOTAL (24 h): 2 g
LIVER (24 h): 11 g
A/G (24 h): 1.5
ALP (24 h): 1146.8 IU/L
ALT (24 h): 33.2 IU/L
AST (24 h): 62.8 IU/L
BUN (24 h): 13.2 mg/dL
CRE (24 h): 0.4 mg/dL
Ca (24 h): 10.5 mg/dL
Cl (24 h): 103.6 meq/L
DBIL (24 h): 0.074 mg/dL
GLC (24 h): 194.2 mg/dL
IP (24 h): 8 mg/dL
LDH (24 h): 176.6 IU/L
Na (24 h): 140.6 meq/L
PL (24 h): 153 mg/dL
RALB (24 h): 3.3 g/dL
TBIL (24 h): 0.1 mg/dL
TC (24 h): 82.8 mg/dL
TG (24 h): 86.8 mg/dL
TP (24 h): 5.6 g/dL
gamma-GTP (24 h): 0.8 IU/L

— ChEMBL document CHEMBL3885861, “Open TG-GATES”
